Holding throughout (type): cell-based
Test [1] relates to Ba/F3-KDR-transfected cells. Briefly: Ba/F3-KDR (minus IL3 or plus IL3) cellular proliferation assay. Conditions: 24 h, read-out: BAF3-KDR (MIN IL3) pIC50 (converted).
Test [2] relates to Ba/F3-FGFR1-transfected cells. As to the kind of experiment: Ba/F3-FGFR1 (minus IL3 or plus IL3) cellular proliferation assay. Conditions: 24 h, read-out: BAF3-FGFR1 (MIN IL3) pIC50 (converted).
Test [3] relates to Ba/F3-FGFR4-transfected cells. As to the kind of experiment: Ba/F3-FGFR4 cellular proliferation assay. Conditions: 24 h, read-out: BAF3-FGFR 4 pIC50 (converted).
For test [4], the system named is Ba/F3-FGFR3-transfected cells. Briefly: Ba/F3-FGFR3 (minus IL3 or plus IL3) cellular proliferation assay. Conditions: 24 h, read-out: BAF3-FGFR3 (MIN IL3) pIC50 (converted).

With `COc1cc(OC)cc(C(O)c2ccc3ncc(-c4cnn(C)c4)nc3n2)c1` (stereo not shown) [Compound 2], the IC50 in test [1] was > 10 µM.
With `COc1cc(OC)cc(C(C)(O)c2ccc3ncc(-c4cnn(C)c4)nc3n2)c1` (stereo not shown) [Compound 3], the IC50 in test [2] and in test [1] was > 10 µM throughout.
For the molecule `COC(=O)CC(c1cc(OC)cc(OC)c1)c1ccc2ncc(-c3cnn(C)c3)nc2n1` (stereo not shown) [Compound 4], the IC50 in test [3] and in test [1] was > 10 µM throughout.
As for `COc1cc(OC)cc(C(=O)c2ccc3ncc(-c4cnn(C)c4)cc3n2)c1` [Compound 8], the IC50 in test [3] and in test [1] was > 10 µM in each case.
As for `COc1cc(OC)cc(C(O)c2ccc3ncc(-c4cnn(C)c4)cc3n2)c1` (stereo not shown) [Compound 10], the IC50 in test [1] was > 10 µM.
On the same count and under the same terms, the result for `COc1cc(OC)cc(C(OCCO)c2ccc3ncc(-c4cnn(C)c4)cc3n2)c1` (stereo not shown) [Compound 11] reads > 10 µM.
`COc1cc(OC)cc(C(CCO)c2ccc3ncc(-c4cnn(C)c4)nc3n2)c1` (stereo not shown) [Compound 14]: the IC50 in test [1] is > 10 µM.
Take `COc1cc(OC)cc(C(Cc2nccn2S(=O)(=O)N(C)C)c2ccc3ncc(-c4cnn(C)c4)nc3n2)c1` (stereo not shown) [Compound 15]: the IC50 in test [1] is > 10 µM.
As to `COc1cccc(C(=O)c2ccc3ncc(-c4cnn(C)c4)cc3n2)c1` [Compound 16], the IC50 in test [2] and in test [1] was > 10 µM in each case.
For the molecule `COc1cccc(C(O)c2ccc3ncc(-c4cnn(C)c4)cc3n2)c1` (stereo not shown) [Compound 17], the IC50 in test [2] and in test [1] was > 10 µM in each case.
With `COc1cc(OC)cc(C(=O)c2ccc3ncc(N4CCOCC4)cc3n2)c1` [Compound 20], the IC50 in test [2], in test [3] and in test [1] was > 10 µM in each case.
In the case of `CCOC(=O)CC(c1cc(OC)cc(OC)c1)c1ccc2ncc(N3CCOCC3)cc2n1` (stereo not shown) [Compound 21], the IC50 in test [2], in test [3] and in test [1] was > 10 µM in each case.
With `COc1cc(OC)cc(C(=O)c2cc3cc(-c4cnn(C)c4)cnc3cn2)c1` [Compound 23], the IC50 in test [2], in test [3] and in test [1] was > 10 µM each time.
For `CCOC(=O)CC(c1cc(OC)cc(OC)c1)c1cc2cc(-c3cnn(C)c3)cnc2cn1` (stereo not shown) [Compound 24], the IC50 in test [2], in test [4], in test [3] and in test [1] was > 10 µM in each case.
Take `COc1cccc(C(=O)c2cc3cc(-c4cnn(C)c4)cnc3cn2)c1` [Compound 26]: the IC50 in test [2], in test [4] and in test [3] was > 10 µM throughout.

Source of the values: patent US9737544B2, “Compounds” (ASTEX THERAPEUTICS LIMITED, priority 2012, dated 2017).
